From patent US10864190B2 (CeMM—Forschungszentrum für Molekulare Medizin GmbH, priority 2015, dated 2020)

Tests used:
[1] = tested on: AR signaling canonical targets (KLK3, TMPRSS2, KLK2) and AR; assay: RT-qPCR of AR and canonical targets of AR signaling in LNCaP cells; assay type: cell-based; settings: 24 hours
Procedure: The RNeasy kit (Qiagen, Venlo, Netherlands) was used to extract RNA. cDNA was produced and reverse transcription quantitative polymerase chain reaction performed using the High Capacity cDNA Reverse Transcription kit and the SYBR Green Master mix from Thermo Fisher Scientific. Reverse transcription quantitative polymerase chain reaction was performed on a LightCycler 480 (Roche, Basel, Switzerland).

γ-carboxylated AR = assay: γ-carboxylation in LNCaP cells (western blotting, immunoprecipitation with anti-γ-carboxyglutamyl antibody); assay type: cell-based; settings: LNCaP lysates, increasing amounts of phenprocoumon
Procedure: Cells were lysed in RIPA buffer supplemented with a cocktail of protease inhibitors (Roche). Lysates were resolved by sodium dodecyl sulfate-polyacrylamide gel electrophoresis. AR (#5153) and GAPDH (#5174) antibodies were purchased from Cell Signaling Technology (Danvers, Mass., USA). αTUB antibody (ab7291) was purchased from Abcam (Cambridge, UK). Anti-γ-carboxyglutamyl antibody (REF 3570) was purchased from Sekisui Diagnostics (Lexington, Mass., USA).
(§1) Cells were lysed in IP buffer (50 mM Tris pH 8, 150 mM NaCl, 1% Igepal) supplemented with a cocktail of protease inhibitors (Roche). Immunoprecipitations were performed at 4° C. and using Dynabeads Protein G (Thermo Fisher Scientific). Lysates were precleared with beads for 30 minutes, incubated with antibodies overnight (1 μg antibody was used for 50 μg protein) and immunoprecipitated for 2 hours. After washing, immunoprecipitated proteins were eluted by either boiling in Laemmli buffer or using 50 mM glycine pH 2.8.

androgen receptor (AR) [2] = assay: 2D difference gel electrophoresis (DIGE) of immunoprecipitated AR; assay type: cell-based; settings: AR immunoprecipitated from LNCaP cells, versus DMSO
Procedure: as §1
IP lysates eluted with glycine buffer were used for 2D difference gel electrophoresis (DIGE). […] Rehydration and isoelectric focusing on IPG strips (ReadyStrip IPG Strips, 11 cm, pH 3-10, non-linear (BioRad)) was followed by SDS-PAGE on gradient gels (Criterion, Any kD, BioRad) and detection with a Typhoon fluorescence scanner at the recommended excitation and emission wavelengths for G-Dye200 and G. Images were analyzed using Delta2D 4.3 software (Decodon, Greifswald, Germany).
The inventors then assessed whether phenprocoumon treatment could otherwise modify AR and analyzed the migration pattern of the protein by means of 2D gel electrophoresis (see FIG. 13H).

androgen receptor (AR) [3] = molecular target: T1, androgen receptor (AR) (Homo sapiens, UniProt P10275, T878A); assay: Cellular thermal shift assay (CETSA); assay type: binding
T1 construct: AR immunoprecipitated from LNCaP cells treated with either DMSO or phenprocoumon; host or cells: LNCaP
Procedure: LNCaP cells were treated with DMSO or 35 μM PPC for 2 days and then harvested maintaining a constant concentration of PPC in all subsequent handling buffers. Otherwise, lysates were directly treated with the drug as already described (Martinez Molina D et al., Science, 2013, 341:84-7).

LNCaP cells = assay: Dose-response matrix, viability of LNCaP cells; assay type: cell-based; settings: 3 days, antiandrogen in combination with phenprocoumon
Procedure: LNCaP (ATCC, Manassas, Va., USA, CRL-1740) and PC-3 (ATCC, CRL-1435) cells were grown in RPMI-1640 supplemented with 10% fetal bovine serum (Thermo Fisher Scientific) and 1% penicillin/streptomycin (Sigma-Aldrich). For steroid-deprived experiments, LNCaP cells were cultured in RPMI-1640 supplemented with 10% charcoal stripped fetal bovine serum (Thermo Fisher Scientific) and 1% penicillin/streptomycin (Sigma-Aldrich).
CLOUD drugs and combinations thereof were transferred on 384-well plates using an acoustic liquid handler (Echo, Labcyte, Sunnyvale, Calif., USA) and 5,000 cells/well were dispensed on top of the drugs using a dispenser (Thermo Fisher Scientific) for a total of 50 μl/well. Viability was measured after 72 hours using CellTiter-Glo (Promega, Fitchburg, Wis., USA) in a multilabel plate reader (EnVision, PekinElmer, Waltham, Mass., USA). Signal was then normalized to negative (DMSO) and positive (10 μM dasatinib) controls and set between 0 and 100. […] Drug combinations were analyzed according to the Bliss independence model (Bliss C I, Ann Appl Biol, 1939, 26:585-615). Briefly, the effect of the combination of drug A and drug B can be predicted to be C=A+B−A*B where A and B are the effects of the single drugs expressed as fractional inhibition between 0 and 1. A deviation of the experimental value from the Bliss prediction was calculated. […]

T1 sequence (P10275 whole entry T878A): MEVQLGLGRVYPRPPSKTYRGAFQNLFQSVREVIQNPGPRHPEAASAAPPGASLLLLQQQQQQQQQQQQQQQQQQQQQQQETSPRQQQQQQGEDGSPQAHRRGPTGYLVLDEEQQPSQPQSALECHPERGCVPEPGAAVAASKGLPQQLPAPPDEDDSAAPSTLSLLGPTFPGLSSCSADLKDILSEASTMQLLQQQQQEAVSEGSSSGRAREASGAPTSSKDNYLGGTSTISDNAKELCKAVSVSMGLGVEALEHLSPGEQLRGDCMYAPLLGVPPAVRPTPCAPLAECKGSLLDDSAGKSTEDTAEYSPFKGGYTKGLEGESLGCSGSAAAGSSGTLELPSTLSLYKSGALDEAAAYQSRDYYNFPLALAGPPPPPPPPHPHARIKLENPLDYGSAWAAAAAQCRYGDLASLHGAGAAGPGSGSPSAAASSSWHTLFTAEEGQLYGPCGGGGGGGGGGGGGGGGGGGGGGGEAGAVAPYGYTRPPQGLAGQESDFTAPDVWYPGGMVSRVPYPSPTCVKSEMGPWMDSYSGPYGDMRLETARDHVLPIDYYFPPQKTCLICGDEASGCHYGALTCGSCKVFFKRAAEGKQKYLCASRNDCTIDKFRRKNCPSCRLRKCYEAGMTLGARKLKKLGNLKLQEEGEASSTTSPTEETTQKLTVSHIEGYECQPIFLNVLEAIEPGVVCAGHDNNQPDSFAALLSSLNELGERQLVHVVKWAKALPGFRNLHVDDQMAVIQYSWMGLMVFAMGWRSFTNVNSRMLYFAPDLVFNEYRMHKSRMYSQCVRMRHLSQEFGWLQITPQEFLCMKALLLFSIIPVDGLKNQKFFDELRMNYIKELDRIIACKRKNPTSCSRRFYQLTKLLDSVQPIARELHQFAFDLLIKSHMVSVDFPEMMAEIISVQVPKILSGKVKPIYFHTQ

With `CCC(c1ccccc1)c1c(O)c2ccccc2oc1=O` (centres unmarked) [phenprocoumon] the “effect on induction of AR signaling (KLK3, KLK2) by R1881” value ([1]; 10 nM R1881 ± 35 μM PPC) was “did not interfere with the induction of AR signaling”, the “expression of AR signaling canonical targets KLK3, TMPRSS2 and KLK2” value ([1]; steroid-deprived medium, 15 μM flutamide, 35 μM PPC) was “did not affect the expression of these genes” and the “amount of AR immunoprecipitated with γ-carboxylation-specific antibody” value (γ-carboxylated AR) was “reduced the amount of immunopreciptated protein in a dose-dependent manner”. For the same compound, the “isoelectric point of AR (migration pattern)” value (androgen receptor (AR) [2]) was “migrated at a higher isoelectric point”, the “thermal stability of AR” value (androgen receptor (AR) [3]; LNCaP cell lysates treated with 100 μM PPC for 30 min, no pretreatment) was “did not stabilize AR” and the “thermal stability of AR” value (androgen receptor (AR) [3]; LNCaP cells treated with 35 μM PPC for 2 days) was “affects the thermal stability of AR”.

`CNC(=O)c1ccc(N2C(=S)N(c3ccc(C#N)c(C(F)(F)F)c3)C(=O)C2(C)C)cc1F` [enzalutamide] was tested, and the “synergy in combination with phenprocoumon” value (LNCaP cells) was “synergistic interaction with phenprocoumon, albeit to a lower extent compared to flutamide”.

With `CC1(C)NC(=O)N(c2ccc([N+](=O)[O-])c(C(F)(F)F)c2)C1=O` [nilutamide] the “synergy in combination with phenprocoumon” value (LNCaP cells) was “synergistic interaction with phenprocoumon, albeit to a lower extent compared to flutamide”.
